# Test results from patent US10617656B2, “Methods of increasing the cytotoxicity of chemotherapeutic agents with multisubstrate inhibitors of histone, protein-Lys, polyamine acetylation, and polyamine metabolism” (Vanderbilt University, priority 2010, dated 2020).
# Legend:
# [1] = tested on: histone H3 lysine 9 acetylation in H358 cells; test: Western analysis of histone H3 acetylation/methylation in H358 cells; assay type: cell-based; conditions: 50 μM, 12 hours
# Protocol: (A) Structures of 1a, and the acetylated side chain of a lysine residue within the polypeptide chain of a protein targeted by the acetylating enzyme (R1 and R2 are the main chain elements on both sides of the lysyl residue). (B) [^3H]-thymidine incorporation into DNA of H358 cells pulsed for 6 hrs at three different time points after the addition of increasing concentrations of 1a, i.e., at 6-12 hrs (12 hr curve), at 18-24 hours (24 hr curve), or at 42-48 hrs (48 hr curve). Incorporation is represented as a percentage relative to control (untreated) cells. (C) Cell cycle analysis of propidium iodide-stained cells harvested at various times after addition of 50 μM 1a. % of cells in G1, S, and G2 represents the average of two independent profiles. (D) Western analysis of histone H3 lysine 9 acetylation, histone H3 lysine 56 acetylation, histone H3 lysine 9 methylation, and total histone H3, before “c” or at the indicated times after addition of 50 μM 1a. Each lane represents 60 μg cellular protein.
# Each lane represents 175 μg cell lysate protein.
# One 6 cm culture dish of H358 cells per treatment was used. Cells were treated with 50 μM spm-2, spm-3, or spd-3a for 12 hours. Histones were extracted from cells in 0.2M H2SO4 (as described in Furuta, T., et al (2003) J. Biol. Chem. 278: 20303-20312), followed by SDS-PAGE and Western blotting. Blots were probed with anti-acetyl histone H3-lysine 9 (Upstate Biotechnology, Inc.)
# Cells were lysed by adding 1 mL of 0.2 M H2SO4. […]
# One 10-cm plate of H358 lung cancer cells (about 2×10^6 cells), grown in DMEM+10% Fetal bovine serum as described in reference, were treated for 24 hours with 50 μM 1a inhibitor. […] Treated cells and untreated (control) cells were harvested by lysing in buffer containing 10 mM Hepes pH 7.5, 100 mM NaCl, 300 mM sucrose, 3 mM MgCl2, 1 mM EDTA, 1 mM DTT, 0.5% Triton X-100, 1 mM PMSF, protease inhibitor pellet (Roche) and analyzed on 10% SDS-PAGE gels, followed by Western immunoblot analysis of total histone H3, methylated histone H3 (methylated on lysine 9), and acetylated histone H3 (acetylated on lysine 9). […]
# GT41F skin fibroblasts = test: 96-well MTS viability assay, GT41F fibroblasts; assay type: cell-based, human; conditions: spm single agent, 3 days
# Protocol: (§1) Cells were plated in 96-well plates at 2000 cells per well and treated with the indicated doses of spd-3a. Cell viability was measured by the MTS assay 3 days later.
# (§2) DLD-1 cells or H358 cells were plated in 96-well plates at 2000 cells per well and treated with the indicated doses of (A) spm-3 or (B) spm-2. (C) Cell viability was measured by the MTS assay 3 days later. Similar experiment using GT41 fibroblasts with spm2 or spm 3. Each assay point represents an average of duplicates.
# DLD-1 colon cancer cells = test: 96-well MTS viability assay, DLD-1; assay type: cell-based; conditions: single agent, 3 days
# Protocol: as §1, §2
# H358 cells = test: Trypan blue exclusion viability assay; assay type: cell-based
Structure (SMILES),histone H3K9 acetylation (Western) [1],sensitivity of normal fibroblasts (GT41F skin fibroblasts),suppression of cancer cell growth and viability (DLD-1 colon cancer cells),"viability at 50 µM (H358 cells; Homo sapiens, NCI-H358, 18 h, read-out: cell viability, single agent) [%]","cell viability, single agent (H358 cells; human, 24 h) [%]"
CC(=O)NCCSCC(=O)NCCCNCCCCNCCCN [spm-3],suppress histone acetylation,sensitivity similar to that of H358 lung cancer cells,effective as single agents,,
"CC(C)(COP(=O)(O)OP(=O)(O)OC[C@H]1O[C@@H](n2cnc3c(N)ncnc32)[C@H](O)[C@@H]1OP(=O)(O)O)[C@@H](O)C(=O)NCCC(=O)NCCSCC(=O)NCCCNCCCCN [1a, spermidine[N1]-CoA]",,,,≥ 96,≥ 96
